Experimental findings from article PMC9898036, “VIP152 is a selective CDK9 inhibitor with pre-clinical in vitro and in vivo efficacy in chronic lymphocytic leukemia” (Leukemia, 2022) are described below.

Test [1] concerns HG-3 cell line. Kind of test: Nuclear CDK9 co-immunoprecipitation (LC-MS/MS proteomics, western blot). Type of test: cell-based, human. As for the experimental part: HG-3 cell line was treated with 1 µM VIP152 or DMSO for 2 h; nuclei were isolated using the Nuclear Complex Co-IP Kit (Active Motif) according to the manufacturer’s protocol. Nuclear lysate was immunoprecipitated using a CDK9 antibody (ab239364 - Abcam) or isotype control (3900 S – Cell Signaling Technology) with Dynabeads™ Protein G Immunoprecipitation Kit (10007D – ThermoFisher Scientific). Beads were submitted for proteomics to the Ohio State University Proteomics Center at the Campus Chemical Instrument Center. Full proteomic methods are available in the supplementary methods section.
Having observed the transcriptomic effects of VIP152 inhibition, we hypothesized a change in the P-TEFb complex would occur validating the mechanism of this agent. Previously, Dow et al. described changes in P-TEFb nuclear complexes with flavopiridol treatment; specifically, they observed loss of nuclear speckles of P-TEFb complexes containing HEXIM1, a major component of the 7SK-RNA complex that inhibits P-TEFb. We observed an increase in the 42 kDa and 55 kDa isoforms of CDK9, as well as Cyclin T1, in the nuclear fraction following treatment (Fig. 4A, B). […] Next, a nuclear immunoprecipitation of CDK9 after a two-hour drugging in the HG-3 cell line (n = 3) was performed, followed by liquid chromatography with tandem mass spectrometry (LC-MS/MS). We detected 226 differentially co-localized proteins and again observed an enrichment in the treated fraction for P-TEFb (Fig. 4B, C). […] These findings were validated via western blot in the MEC-1 and HG-3 cell lines (Supplementary Fig. 9). […] Finally, to appreciate the effect of inhibition on the association with the inhibitory 7SK-RNA complex, we performed reciprocal nuclear co-immunoprecipitation of CDK9 and HEXIM1 (Fig. 4E and Supplementary Fig. 10). […] This decrease in 7SK association due to inhibition is consistent with other work characterizing the disruption of the 7SK complex as a result of cellular stresses.
MSGF+ search engine against a reviewed UniProt human proteome (downloaded 12/07/2020) containing the cRAP and MaxQuant contaminant FASTAs32. Search parameters included: full trypsin digest, 1 missed cleavage, carbamidomethylation of cysteine as a fixed modification and oxidation of methionine as a variable modification with precursor and fragment mass tolerances of 10 ppm and 5 Da. PSM rescoring was performed with Percolator and protein inference was performed with Epifany across all samples, setting peptide and protein false discovery rates to 0.05. […]
All data analysis was performed with R (version 3.6.2) with various packages and is included in supplemental material (zipped File_S1). […] Data was quantile normalized, and significance (p-value < 0.05) determined by a modified exact test. […]
In general terms: A western blot detects proteins with antibodies after separation by electrophoresis.

The target in test [2] is Histamine H3 (Homo sapiens, UniProt Q9Y5N1). Kind of test: Eurofins Diversity Panel. In kind it is binding. To be noted: hum, Conc. 10 μM.
Test [3] deals with SRC (Homo sapiens, UniProt P12931). Kind of test: KINOMEscan: SRC. The note with it: 100 nM, read-out: Percent Control. Type of test: binding.
Test [4] concerns the target CDK11 (Homo sapiens, UniProt Q9BWU1). Kind of test: KINOMEscan: CDK11. Type of test: binding. The note with it: 1000 nM, read-out: Percent Control.
For test [5], the target named is EPHA2 (Homo sapiens, UniProt P29317). Kind of test: KINOMEscan: EPHA2. To be noted: 1000 nM, read-out: Percent Control. Type of test: binding.
Test [6] deals with EGFR(L747-T751del,Sins). Kind of test: KINOMEscan: EGFR(L747-T751del,Sins). Type of test: binding, human. To be noted: 1000 nM.
Test [7] concerns the target Histamine H1 (Homo sapiens, UniProt P35367). Put plainly: Eurofins Diversity Panel. Type of test: binding. The note with it: hum, Conc. 10 μM.
The target in test [8] is EGFR(L747-S752del, P753S) (Homo sapiens, UniProt P00533, DEL747-752/P753S). Kind of test: KINOMEscan: EGFR(L747-S752del, P753S). The note with it: 1000 nM, read-out: Percent Control. Type of test: binding.
In test [9] the target is CDK7 (Homo sapiens, UniProt P50613). Kind of test: KINOMEscan: CDK7. Type of test: binding. As for the experimental part: The structure and synthesis of VIP152 were recently described by Lücking et al.. (Fig. 1A); however, the selectivity of the molecule in cellular systems has yet to be explored. […] We also performed this experiment at 1000 nM, where CDK9 was inhibited at 99%. […] We found a strong concordance between our data and those of Lücking when comparing the most inhibited kinases. Potential off-target effects of VIP152 were next tested in vitro at a concentration of 10 µM for off-target activity against a broad range of receptors, transporters, ion channels, and enzymes (n = 138) using the Eurofins Diversity Panel.
Kinomescan Kinase Profiling Assay
Kinomescan Assay was performed at DiscoverRX and described in Fabian, et al. 2005, Nat.
Biotechnol. In brief, kinases were produced and subsequently tagged with DNA for qPCR detection.
Streptavidin-coated magnetic beads were bound to biotinylated kinase ligands to serve as a solid support.
VIP152 was dissolved in DMSO and tested across a 10 serial threefold dilution set and compared to a test compound and a DMSO control. Kinases which were inhibited by VIP152 would not be bound to the solid-support resulting in decreased substrate for the qPCR reaction. Kinome map was produced via TreeSpot Analysis from DiscoverRX. […]
NanoBRETTM Target Engagement Assay Protocol […]
The cell and lipid:DNA […]
complex was dispensed into a sterile tissue culture dish and incubated for 22-24 hours. Test compounds were then delivered from the compound source plate to the wells of a 384-well white NBS plate by Echo 550. Cells with NanoBRET Tracer Reagent were then prepared by first removing media from dish of transfected HEK293 cells via aspiration, trypsinization, and allowing cells to dissociate from the dish. Trypsin was neutralized using medium containing serum and centrifuged at 200g for 5 minutes to pellet the cells. Cell density was then adjusted to 2E05 cells/mL in Opti-MEM without phenol red. Complete 20X NanoBRET Tracer Reagent was prepared with Tracer Dilution Buffer and dispensed at a ratio of 1:20 Reagent to cells in the tube. The cell

Chain of CDK7 (P50613 whole entry): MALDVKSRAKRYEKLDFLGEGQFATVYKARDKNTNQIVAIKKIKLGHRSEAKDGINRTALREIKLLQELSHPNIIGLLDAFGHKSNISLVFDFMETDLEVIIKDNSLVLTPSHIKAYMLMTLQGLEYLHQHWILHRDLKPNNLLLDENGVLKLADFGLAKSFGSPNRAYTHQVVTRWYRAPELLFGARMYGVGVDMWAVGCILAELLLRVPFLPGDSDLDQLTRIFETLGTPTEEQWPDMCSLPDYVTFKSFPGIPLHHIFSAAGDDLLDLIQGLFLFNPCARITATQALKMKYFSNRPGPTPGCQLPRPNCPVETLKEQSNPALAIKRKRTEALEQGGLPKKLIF
Chain of EPHA2 (P29317 24-976): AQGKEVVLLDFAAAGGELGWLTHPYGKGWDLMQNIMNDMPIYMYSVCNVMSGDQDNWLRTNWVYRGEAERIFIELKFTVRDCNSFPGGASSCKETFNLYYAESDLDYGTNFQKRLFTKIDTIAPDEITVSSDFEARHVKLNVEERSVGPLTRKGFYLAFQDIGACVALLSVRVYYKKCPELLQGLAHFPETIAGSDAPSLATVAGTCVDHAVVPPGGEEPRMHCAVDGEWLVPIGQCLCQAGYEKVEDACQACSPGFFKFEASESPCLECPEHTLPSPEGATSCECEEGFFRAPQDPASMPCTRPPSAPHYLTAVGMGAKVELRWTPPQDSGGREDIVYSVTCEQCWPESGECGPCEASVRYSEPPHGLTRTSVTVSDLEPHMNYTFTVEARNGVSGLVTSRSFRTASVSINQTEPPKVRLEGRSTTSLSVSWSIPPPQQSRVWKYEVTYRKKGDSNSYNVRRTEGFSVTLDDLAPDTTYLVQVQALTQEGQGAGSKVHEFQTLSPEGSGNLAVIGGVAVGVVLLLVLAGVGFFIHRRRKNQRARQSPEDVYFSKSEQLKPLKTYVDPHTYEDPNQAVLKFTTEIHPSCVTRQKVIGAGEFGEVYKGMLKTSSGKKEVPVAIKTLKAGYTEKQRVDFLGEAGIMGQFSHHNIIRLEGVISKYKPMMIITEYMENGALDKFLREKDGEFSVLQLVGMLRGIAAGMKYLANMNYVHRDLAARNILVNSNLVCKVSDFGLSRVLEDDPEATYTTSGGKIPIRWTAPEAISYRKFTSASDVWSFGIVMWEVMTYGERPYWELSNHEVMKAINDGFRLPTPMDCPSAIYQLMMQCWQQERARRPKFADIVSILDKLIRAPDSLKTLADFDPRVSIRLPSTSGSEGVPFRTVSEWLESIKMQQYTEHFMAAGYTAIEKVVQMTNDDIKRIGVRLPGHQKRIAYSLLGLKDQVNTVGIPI
Chain of CDK11 (Q9BWU1 whole entry): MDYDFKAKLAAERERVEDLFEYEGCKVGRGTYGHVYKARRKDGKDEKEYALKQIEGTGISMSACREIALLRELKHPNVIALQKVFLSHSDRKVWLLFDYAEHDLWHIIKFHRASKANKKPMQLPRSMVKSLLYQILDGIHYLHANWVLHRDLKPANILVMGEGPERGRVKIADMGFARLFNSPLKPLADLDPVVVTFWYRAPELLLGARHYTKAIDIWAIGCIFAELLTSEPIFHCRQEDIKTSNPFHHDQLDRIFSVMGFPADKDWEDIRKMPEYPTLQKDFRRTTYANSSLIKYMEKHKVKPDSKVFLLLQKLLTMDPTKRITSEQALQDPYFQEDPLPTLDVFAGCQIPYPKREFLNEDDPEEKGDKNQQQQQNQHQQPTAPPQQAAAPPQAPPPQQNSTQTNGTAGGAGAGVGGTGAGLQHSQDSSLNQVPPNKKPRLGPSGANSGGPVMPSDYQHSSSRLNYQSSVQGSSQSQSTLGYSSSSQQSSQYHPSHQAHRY
Chain of SRC (P12931 whole entry): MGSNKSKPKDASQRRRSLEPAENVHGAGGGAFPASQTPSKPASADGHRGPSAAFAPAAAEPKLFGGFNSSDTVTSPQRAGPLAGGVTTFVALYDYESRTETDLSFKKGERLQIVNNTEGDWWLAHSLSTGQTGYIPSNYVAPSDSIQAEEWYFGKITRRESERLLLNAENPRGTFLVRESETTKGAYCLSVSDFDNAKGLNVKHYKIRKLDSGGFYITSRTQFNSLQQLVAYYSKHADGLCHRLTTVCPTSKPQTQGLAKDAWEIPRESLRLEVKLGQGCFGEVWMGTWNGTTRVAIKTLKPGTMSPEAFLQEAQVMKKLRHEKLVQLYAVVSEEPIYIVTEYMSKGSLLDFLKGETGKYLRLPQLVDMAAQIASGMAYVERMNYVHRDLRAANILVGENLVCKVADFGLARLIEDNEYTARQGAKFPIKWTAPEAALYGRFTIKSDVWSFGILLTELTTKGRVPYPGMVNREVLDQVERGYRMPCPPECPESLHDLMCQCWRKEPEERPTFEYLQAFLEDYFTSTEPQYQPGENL
Chain of EGFR(L747-S752del, P753S) (P00533 with tags, fused parts or gaps DEL747-752/P753S limits assumed): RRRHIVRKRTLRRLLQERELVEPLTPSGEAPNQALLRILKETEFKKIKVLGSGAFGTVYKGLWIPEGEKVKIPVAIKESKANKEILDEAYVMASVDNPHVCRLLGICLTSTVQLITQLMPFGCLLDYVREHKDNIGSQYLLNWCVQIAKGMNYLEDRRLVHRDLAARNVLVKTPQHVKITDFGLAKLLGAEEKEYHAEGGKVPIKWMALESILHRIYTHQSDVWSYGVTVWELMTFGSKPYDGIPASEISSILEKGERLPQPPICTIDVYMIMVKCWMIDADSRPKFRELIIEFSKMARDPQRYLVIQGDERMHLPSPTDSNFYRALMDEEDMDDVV
Chain of Histamine H1 (P35367 whole entry): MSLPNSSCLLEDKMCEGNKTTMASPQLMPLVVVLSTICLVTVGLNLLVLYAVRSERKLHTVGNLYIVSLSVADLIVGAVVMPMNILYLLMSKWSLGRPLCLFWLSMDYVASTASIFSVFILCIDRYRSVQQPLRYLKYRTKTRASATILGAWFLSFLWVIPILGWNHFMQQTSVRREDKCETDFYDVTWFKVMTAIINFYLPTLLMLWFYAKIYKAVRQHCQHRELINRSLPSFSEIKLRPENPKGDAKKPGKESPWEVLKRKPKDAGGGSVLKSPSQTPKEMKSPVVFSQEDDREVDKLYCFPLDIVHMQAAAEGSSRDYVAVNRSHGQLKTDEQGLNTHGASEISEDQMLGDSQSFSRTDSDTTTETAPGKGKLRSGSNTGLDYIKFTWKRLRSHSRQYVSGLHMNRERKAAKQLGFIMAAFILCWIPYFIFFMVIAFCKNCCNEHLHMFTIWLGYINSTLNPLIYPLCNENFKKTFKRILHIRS
Chain of Histamine H3 (Q9Y5N1 whole entry): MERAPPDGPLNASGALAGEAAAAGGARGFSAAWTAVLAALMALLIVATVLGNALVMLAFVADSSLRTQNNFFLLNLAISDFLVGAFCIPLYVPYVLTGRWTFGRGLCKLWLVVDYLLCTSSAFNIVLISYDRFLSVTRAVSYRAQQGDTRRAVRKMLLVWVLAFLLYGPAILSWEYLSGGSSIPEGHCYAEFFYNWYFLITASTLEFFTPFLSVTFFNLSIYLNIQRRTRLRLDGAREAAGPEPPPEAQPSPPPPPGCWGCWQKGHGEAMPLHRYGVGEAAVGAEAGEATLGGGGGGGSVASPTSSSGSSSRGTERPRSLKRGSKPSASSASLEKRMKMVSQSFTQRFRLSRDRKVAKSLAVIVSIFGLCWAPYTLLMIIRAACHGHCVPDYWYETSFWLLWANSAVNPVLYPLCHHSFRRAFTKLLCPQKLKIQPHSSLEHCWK

As a reminder, the inhibition is the change of the read-out against control, counted positive when it falls. Regarding `COc1cc(F)ccc1-c1cc(Nc2cc(CS(C)(=N)=O)ccn2)ncc1F` (stereo not drawn) [VIP152], the “association with transcription-associated machinery (SPT6H and IWS1) and RPB3” value in [1] (1 µM, 2 h, nuclear IP of CDK9) is given as “decreased association”. The compound also had a differentially co-localized proteins in [1] (1 µM, 2 h, nuclear IP of CDK9, LC-MS/MS) of 226. The “association with DDX21, Fold Change” value in [1] (1 µM, 2 h, nuclear IP of CDK9, proteomics) stood at 1.47. Besides, the “association of CDK9 with 7SK-RNA complex components (HEXIM1, MEPCE, LARP7)” value in [1] (HG-3 and MEC-1, reciprocal nuclear co-immunoprecipitation of CDK9 and HEXIM1) is “decreased association”. Further, the inhibition at 10 µM in [2] was -4%; in test [7] it was 1%. Besides, the remaining binding at 0.1 µM in test [3] is 100%; in test [9] (CDK7, 100 nM, read-out: Percent Control), 36%. Also, the remaining binding at 1 µM was determined as 100% in test [4]; 97% in test [5]; 94% in [8]; 2.1% in test [9] (CDK7, 1000 nM, read-out: Percent Control). Further, the “Percent Control” value in test [6] amounted to 97%. Besides, in [9] (100 nM), the inhibition at 0.1 µM was 64%. In addition, the inhibition at 1 µM in test [9] (1000 nM) is 97.9%.
